Measurements: the NIST ThermoML archive (doi:10.1016/j.jct.2018.10.015)
± gives the expanded uncertainty stated by the source.

Key:
[1] = 101.3 kPa, Liquid; for viscosity: Concentric cylinders viscometry; for mass density: Vibrating tube method
[2] = xn = mol fraction of the nth substance listed; details: 101.3 kPa, Liquid, x2 = 0; for viscosity: Concentric cylinders viscometry; for mass density: Vibrating tube method

CCOC(=O)OCC [diethyl carbonate]
viscosity ([1]; 293.15 K): 0.805 ± 0.011 mPa·s
mass density ([1]; 293.15 K): 974.9 ± 2.4 kg/m3
viscosity ([1]; 298.15 K): 0.751 ± 0.01 mPa·s
mass density ([1]; 298.15 K): 969.3 ± 2.4 kg/m3
viscosity ([1]; 303.15 K): 0.702 ± 0.01 mPa·s
mass density ([1]; 303.15 K): 963.7 ± 2.4 kg/m3
viscosity ([1]; 308.15 K): 0.659 ± 0.009 mPa·s
mass density ([1]; 308.15 K): 958 ± 2.4 kg/m3
viscosity ([1]; 313.15 K): 0.62 ± 0.009 mPa·s
mass density ([1]; 313.15 K): 952.4 ± 2.4 kg/m3
viscosity ([1]; 318.15 K): 0.584 ± 0.008 mPa·s
mass density ([1]; 318.15 K): 946.7 ± 2.4 kg/m3
viscosity ([1]; 323.15 K): 0.552 ± 0.008 mPa·s
mass density ([1]; 323.15 K): 940.9 ± 2.4 kg/m3
viscosity ([1]; 328.15 K): 0.523 ± 0.008 mPa·s
mass density ([1]; 328.15 K): 935.2 ± 2.4 kg/m3

COC(=O)OC [dimethyl carbonate] + CCCCn1cc[n+](C)c1C.O=S(=O)([N-]S(=O)(=O)C(F)(F)F)C(F)(F)F
viscosity ([2]; 293.15 K): 0.629 ± 0.009 mPa·s
mass density ([2]; 293.15 K): 1069.7 ± 2.4 kg/m3
viscosity ([2]; 298.15 K): 0.59 ± 0.008 mPa·s
mass density ([2]; 298.15 K): 1063.1 ± 2.4 kg/m3
viscosity ([2]; 303.15 K): 0.555 ± 0.008 mPa·s
mass density ([2]; 303.15 K): 1056.4 ± 2.4 kg/m3
viscosity ([2]; 308.15 K): 0.525 ± 0.008 mPa·s
mass density ([2]; 308.15 K): 1049.7 ± 2.4 kg/m3
viscosity ([2]; 313.15 K): 0.495 ± 0.007 mPa·s
mass density ([2]; 313.15 K): 1043.1 ± 2.4 kg/m3
viscosity ([2]; 318.15 K): 0.475 ± 0.007 mPa·s
mass density ([2]; 318.15 K): 1036.4 ± 2.4 kg/m3
viscosity ([2]; 323.15 K): 0.446 ± 0.007 mPa·s
mass density ([2]; 323.15 K): 1029.6 ± 2.4 kg/m3
viscosity ([2]; 328.15 K): 0.425 ± 0.007 mPa·s
mass density ([2]; 328.15 K): 1022.8 ± 2.4 kg/m3

CCOC(=O)OCC [diethyl carbonate] + CCn1cc[n+](C)c1C.O=S(=O)([N-]S(=O)(=O)C(F)(F)F)C(F)(F)F
viscosity ([2]; 293.15 K): 0.805 ± 0.011 mPa·s
mass density ([2]; 293.15 K): 974.9 ± 2.4 kg/m3
viscosity ([2]; 298.15 K): 0.751 ± 0.01 mPa·s
mass density ([2]; 298.15 K): 969.3 ± 2.4 kg/m3
viscosity ([2]; 303.15 K): 0.702 ± 0.01 mPa·s
mass density ([2]; 303.15 K): 963.7 ± 2.4 kg/m3
viscosity ([2]; 308.15 K): 0.659 ± 0.009 mPa·s
mass density ([2]; 308.15 K): 958 ± 2.4 kg/m3
viscosity ([2]; 313.15 K): 0.62 ± 0.009 mPa·s
mass density ([2]; 313.15 K): 952.4 ± 2.4 kg/m3
viscosity ([2]; 318.15 K): 0.584 ± 0.008 mPa·s
mass density ([2]; 318.15 K): 946.7 ± 2.4 kg/m3
viscosity ([2]; 323.15 K): 0.552 ± 0.008 mPa·s
mass density ([2]; 323.15 K): 940.9 ± 2.4 kg/m3
viscosity ([2]; 328.15 K): 0.523 ± 0.008 mPa·s
mass density ([2]; 328.15 K): 935.2 ± 2.4 kg/m3

CCn1cc[n+](C)c1C.O=S(=O)([N-]S(=O)(=O)C(F)(F)F)C(F)(F)F
viscosity ([1]; 293.15 K): 89.88 ± 1.3 mPa·s
mass density ([1]; 293.15 K): 1495.8 ± 2.5 kg/m3
viscosity ([1]; 298.15 K): 71.34 ± 0.92 mPa·s
mass density ([1]; 298.15 K): 1491 ± 2.5 kg/m3
viscosity ([1]; 303.15 K): 57.64 ± 0.7 mPa·s
mass density ([1]; 303.15 K): 1486.3 ± 2.5 kg/m3
viscosity ([1]; 308.15 K): 47.26 ± 0.58 mPa·s
mass density ([1]; 308.15 K): 1481.5 ± 2.5 kg/m3
viscosity ([1]; 313.15 K): 39.24 ± 0.48 mPa·s
mass density ([1]; 313.15 K): 1476.7 ± 2.5 kg/m3
viscosity ([1]; 318.15 K): 33 ± 0.4 mPa·s
mass density ([1]; 318.15 K): 1472 ± 2.5 kg/m3
viscosity ([1]; 323.15 K): 28.05 ± 0.34 mPa·s
mass density ([1]; 323.15 K): 1467.2 ± 2.5 kg/m3
viscosity ([1]; 328.15 K): 24.16 ± 0.29 mPa·s
mass density ([1]; 328.15 K): 1462.4 ± 2.5 kg/m3

CCOC(=O)OCC [diethyl carbonate] + CCCCn1cc[n+](C)c1C.O=S(=O)([N-]S(=O)(=O)C(F)(F)F)C(F)(F)F
viscosity ([2]; 293.15 K): 0.805 ± 0.011 mPa·s
mass density ([2]; 293.15 K): 974.9 ± 2.4 kg/m3
viscosity ([2]; 298.15 K): 0.751 ± 0.01 mPa·s
mass density ([2]; 298.15 K): 969.3 ± 2.4 kg/m3
viscosity ([2]; 303.15 K): 0.702 ± 0.01 mPa·s
mass density ([2]; 303.15 K): 963.7 ± 2.4 kg/m3
viscosity ([2]; 308.15 K): 0.659 ± 0.009 mPa·s
mass density ([2]; 308.15 K): 958 ± 2.4 kg/m3
viscosity ([2]; 313.15 K): 0.62 ± 0.009 mPa·s
mass density ([2]; 313.15 K): 952.4 ± 2.4 kg/m3
viscosity ([2]; 318.15 K): 0.584 ± 0.008 mPa·s
mass density ([2]; 318.15 K): 946.7 ± 2.4 kg/m3
viscosity ([2]; 323.15 K): 0.552 ± 0.008 mPa·s
mass density ([2]; 323.15 K): 940.9 ± 2.4 kg/m3
viscosity ([2]; 328.15 K): 0.523 ± 0.008 mPa·s
mass density ([2]; 328.15 K): 935.2 ± 2.4 kg/m3

COC(=O)OC [dimethyl carbonate]
viscosity ([1]; 293.15 K): 0.629 ± 0.009 mPa·s
mass density ([1]; 293.15 K): 1069.7 ± 2.4 kg/m3
viscosity ([1]; 298.15 K): 0.59 ± 0.008 mPa·s
mass density ([1]; 298.15 K): 1063.1 ± 2.4 kg/m3
viscosity ([1]; 303.15 K): 0.555 ± 0.008 mPa·s
mass density ([1]; 303.15 K): 1056.4 ± 2.4 kg/m3
viscosity ([1]; 308.15 K): 0.525 ± 0.008 mPa·s
mass density ([1]; 308.15 K): 1049.7 ± 2.4 kg/m3
viscosity ([1]; 313.15 K): 0.495 ± 0.007 mPa·s
mass density ([1]; 313.15 K): 1043.1 ± 2.4 kg/m3
viscosity ([1]; 318.15 K): 0.475 ± 0.007 mPa·s
mass density ([1]; 318.15 K): 1036.4 ± 2.4 kg/m3
viscosity ([1]; 323.15 K): 0.446 ± 0.007 mPa·s
mass density ([1]; 323.15 K): 1029.6 ± 2.4 kg/m3
viscosity ([1]; 328.15 K): 0.425 ± 0.007 mPa·s
mass density ([1]; 328.15 K): 1022.8 ± 2.4 kg/m3

CCCCn1cc[n+](C)c1C.O=S(=O)([N-]S(=O)(=O)C(F)(F)F)C(F)(F)F
viscosity ([1]; 293.15 K): 133.6 ± 2.3 mPa·s
mass density ([1]; 293.15 K): 1423.1 ± 2.5 kg/m3
viscosity ([1]; 298.15 K): 101.82 ± 1.6 mPa·s
mass density ([1]; 298.15 K): 1418.5 ± 2.5 kg/m3
viscosity ([1]; 303.15 K): 79.23 ± 1.1 mPa·s
mass density ([1]; 303.15 K): 1413.9 ± 2.5 kg/m3
viscosity ([1]; 308.15 K): 62.74 ± 0.78 mPa·s
mass density ([1]; 308.15 K): 1409.3 ± 2.5 kg/m3
viscosity ([1]; 313.15 K): 50.56 ± 0.6 mPa·s
mass density ([1]; 313.15 K): 1404.8 ± 2.5 kg/m3
viscosity ([1]; 318.15 K): 41.38 ± 0.5 mPa·s
mass density ([1]; 318.15 K): 1400.2 ± 2.5 kg/m3
viscosity ([1]; 323.15 K): 34.32 ± 0.42 mPa·s
mass density ([1]; 323.15 K): 1395.6 ± 2.5 kg/m3
viscosity ([1]; 328.15 K): 28.91 ± 0.35 mPa·s
mass density ([1]; 328.15 K): 1391 ± 2.5 kg/m3

COC(=O)OC [dimethyl carbonate] + CCn1cc[n+](C)c1C.O=S(=O)([N-]S(=O)(=O)C(F)(F)F)C(F)(F)F
viscosity ([2]; 293.15 K): 0.629 ± 0.009 mPa·s
mass density ([2]; 293.15 K): 1069.7 ± 2.4 kg/m3
viscosity ([2]; 298.15 K): 0.59 ± 0.008 mPa·s
mass density ([2]; 298.15 K): 1063.1 ± 2.4 kg/m3
viscosity ([2]; 303.15 K): 0.555 ± 0.008 mPa·s
mass density ([2]; 303.15 K): 1056.4 ± 2.4 kg/m3
viscosity ([2]; 308.15 K): 0.525 ± 0.008 mPa·s
mass density ([2]; 308.15 K): 1049.7 ± 2.4 kg/m3
viscosity ([2]; 313.15 K): 0.495 ± 0.007 mPa·s
mass density ([2]; 313.15 K): 1043.1 ± 2.4 kg/m3
viscosity ([2]; 318.15 K): 0.475 ± 0.007 mPa·s
mass density ([2]; 318.15 K): 1036.4 ± 2.4 kg/m3
viscosity ([2]; 323.15 K): 0.446 ± 0.007 mPa·s
mass density ([2]; 323.15 K): 1029.6 ± 2.4 kg/m3
viscosity ([2]; 328.15 K): 0.425 ± 0.007 mPa·s
mass density ([2]; 328.15 K): 1022.8 ± 2.4 kg/m3
